Bounds are passed on as bounds.

As usually defined, the IC50 is the concentration that gives 50% inhibition.

The target in one experiment is T1, Nav1.7 (or SCN9A) channel; HEK cells stably transfected with hSCN9A (Homo sapiens, UniProt Q15858).
T1 construct: expressed in transfected cells
T1 sequence (Q15858 whole entry): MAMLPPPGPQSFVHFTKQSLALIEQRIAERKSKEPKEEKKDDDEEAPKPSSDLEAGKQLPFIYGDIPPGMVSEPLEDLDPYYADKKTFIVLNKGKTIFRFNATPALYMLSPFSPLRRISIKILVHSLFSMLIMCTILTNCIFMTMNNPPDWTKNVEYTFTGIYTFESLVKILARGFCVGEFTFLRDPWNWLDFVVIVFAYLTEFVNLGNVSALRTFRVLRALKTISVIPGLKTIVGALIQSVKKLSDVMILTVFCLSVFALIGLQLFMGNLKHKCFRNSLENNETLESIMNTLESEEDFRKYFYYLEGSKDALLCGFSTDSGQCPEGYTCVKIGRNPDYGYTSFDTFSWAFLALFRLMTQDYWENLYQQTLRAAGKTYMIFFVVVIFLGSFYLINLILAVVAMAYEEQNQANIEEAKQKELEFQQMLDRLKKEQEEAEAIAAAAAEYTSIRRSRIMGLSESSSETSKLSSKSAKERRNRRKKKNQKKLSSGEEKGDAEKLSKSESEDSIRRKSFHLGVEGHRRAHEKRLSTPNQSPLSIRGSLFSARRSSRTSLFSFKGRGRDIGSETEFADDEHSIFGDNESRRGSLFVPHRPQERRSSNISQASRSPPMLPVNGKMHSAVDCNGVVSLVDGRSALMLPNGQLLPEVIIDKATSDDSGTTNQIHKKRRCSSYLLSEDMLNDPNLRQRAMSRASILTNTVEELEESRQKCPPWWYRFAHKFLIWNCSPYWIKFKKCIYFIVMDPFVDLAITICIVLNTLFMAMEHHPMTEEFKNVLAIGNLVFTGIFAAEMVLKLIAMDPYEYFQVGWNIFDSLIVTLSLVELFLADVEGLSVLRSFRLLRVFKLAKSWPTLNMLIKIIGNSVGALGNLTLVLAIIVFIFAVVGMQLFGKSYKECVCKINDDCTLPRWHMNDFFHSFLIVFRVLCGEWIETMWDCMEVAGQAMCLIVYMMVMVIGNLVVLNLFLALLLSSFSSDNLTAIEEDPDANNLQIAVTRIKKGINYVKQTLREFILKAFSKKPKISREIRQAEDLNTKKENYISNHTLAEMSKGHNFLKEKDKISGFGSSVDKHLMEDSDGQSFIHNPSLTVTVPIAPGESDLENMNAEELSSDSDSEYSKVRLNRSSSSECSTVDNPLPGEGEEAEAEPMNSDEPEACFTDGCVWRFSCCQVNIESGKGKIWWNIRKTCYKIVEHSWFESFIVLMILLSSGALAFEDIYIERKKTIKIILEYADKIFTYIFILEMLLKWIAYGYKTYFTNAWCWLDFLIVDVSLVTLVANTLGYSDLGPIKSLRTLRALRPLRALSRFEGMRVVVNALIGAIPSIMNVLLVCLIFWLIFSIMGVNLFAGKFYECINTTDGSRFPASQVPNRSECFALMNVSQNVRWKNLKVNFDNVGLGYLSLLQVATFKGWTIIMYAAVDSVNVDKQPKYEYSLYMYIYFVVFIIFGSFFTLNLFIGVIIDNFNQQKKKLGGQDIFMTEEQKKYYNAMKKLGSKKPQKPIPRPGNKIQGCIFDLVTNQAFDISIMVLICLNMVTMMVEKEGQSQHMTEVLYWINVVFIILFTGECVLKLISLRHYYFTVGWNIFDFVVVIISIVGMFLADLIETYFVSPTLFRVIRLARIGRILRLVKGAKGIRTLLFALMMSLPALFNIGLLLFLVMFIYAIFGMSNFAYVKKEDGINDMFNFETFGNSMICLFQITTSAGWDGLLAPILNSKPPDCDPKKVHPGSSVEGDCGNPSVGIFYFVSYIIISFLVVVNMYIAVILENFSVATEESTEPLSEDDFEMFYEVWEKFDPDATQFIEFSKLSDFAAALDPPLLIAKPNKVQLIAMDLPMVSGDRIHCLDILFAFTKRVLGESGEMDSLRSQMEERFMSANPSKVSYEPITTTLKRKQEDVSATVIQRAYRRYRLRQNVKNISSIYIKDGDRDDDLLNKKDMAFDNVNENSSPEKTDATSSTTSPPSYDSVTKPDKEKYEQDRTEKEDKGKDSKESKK
Kind of experiment: Nav1.7 block, PatchXpress 7000 automated whole-cell voltage clamp, estimated IC50 (EIC50). It counts as cell-based. To be noted: PatchXpress platform; hSCN9A HEK cells held at V1/2 of inactivation; estimated IC50.
For `CC(C)(C)n1nc(Cc2ccc(Cl)cc2)cc1Oc1ccc(S(=O)(=O)Nc2nccs2)cc1F` [Example 240, 4-[2-tert-butyl-5-(4-chloro-benzyl)-2H-pyrazol-3-yloxy]-3-fluoro-N-thiazol-2-yl-benzenesulfonamide], the IC50 is 1980 nM.
Still for that read-out and setting: as for `Cc1csc(NS(=O)(=O)c2ccc(Oc3ccccc3-c3ccccc3)c(C#N)c2)n1` [Example 101, 4-(biphenyl-2-yloxy)-3-cyano-N-(4-methyl-1,3-thiazol-2-yl)benzenesulfonamide], the figure is 1580 nM; as for `CCc1ccc(-c2ncccc2Oc2ccc(S(=O)(=O)Nc3ncns3)cc2C#N)cc1` [Example 7, 3-cyano-4-{[2-(4-ethylphenyl)pyridin-3-yl]oxy}-N-1,2,4-thiadiazol-5-ylbenzenesulfonamide], 35900 nM.
On the same count and under the same terms, next, `Cc1cn(Cc2ccccc2)nc1Oc1ccc(S(=O)(=O)Nc2ncns2)cc1C#N` [Example 66, 4-[(1-benzyl-4-methyl-1H-pyrazol-3-yl)oxy]-3-cyano-N-1,2,4-thiadiazol-5-ylbenzenesulfonamide]: 2660 nM; `Cc1nsc(NS(=O)(=O)c2ccc(Oc3ccccc3-c3ccccc3)c(C#N)c2)n1` [Example 103, 4-(biphenyl-2-yloxy)-3-cyano-N-(3-methyl-1,2,4-thiadiazol-5-yl)benzenesulfonamide]: 1300 nM.
As to `N#Cc1cc(S(=O)(=O)Nc2ncc(Cl)s2)ccc1Oc1ccccc1-c1ccccc1` [Example 146, 4-(biphenyl-2-yloxy)-N-(5-chloro-1,3-thiazol-2-yl)-3-cyanobenzenesulfonamide], the IC50 was 890 nM.

Staying with this experiment, now noted: estimated IC50; hSCN9A HEK cells, PatchXpress platform; Examples 283-814.
For `CCn1nc(C)cc1-c1ccc(Oc2ccc(S(=O)(=O)Nc3nccs3)cc2C#N)cc1` [Example 388, 3-cyano-4-[4-(1-ethyl-3-methyl-1H-pyrazol-5-yl)phenoxy]-N-1,3-thiazol-2-ylbenzenesulfonamide], the IC50 was 740 nM.
Still for that read-out and setting: next, `O=S(=O)(Nc1cscn1)c1cc(Cl)c(Oc2cc(C(F)(F)F)ccc2-c2cccc(CO)c2)cc1F` [Example 663, 5-chloro-2-fluoro-4-{[3′-(hydroxymethyl)-4-(trifluoromethyl)biphenyl-2-yl]oxy}-N-1,3-thiazol-4-ylbenzenesulfonamide]: 130 nM; `N#Cc1cc(S(=O)(=O)Nc2nccs2)ccc1Oc1ccc(Cl)cc1CN1CCC(F)(F)CC1` [Example 358, 4-{4-chloro-2-[(4,4-difluoropiperidin-1-yl)methyl]phenoxy}-3-cyano-N-1,3-thiazol-2-ylbenzenesulfonamide]: 360 nM; `Cc1cnc(NS(=O)(=O)c2ccc(Oc3ccccc3-c3ccccc3)c(C#N)c2)nc1` [Example 429, 4-(biphenyl-2-yloxy)-3-cyano-N-(5-methylpyrimidin-2-yl)benzenesulfonamide]: above 10000 nM.
For `Nc1cc(-c2cc(F)ccc2Oc2cc(F)c(S(=O)(=O)Nc3ncns3)cc2Cl)ccn1` [Example 405, 4-[2-(2-aminopyridin-4-yl)-4-fluorophenoxy]-5-chloro-2-fluoro-N-1,2,4-thiadiazol-5-ylbenzenesulfonamide], the IC50 was 2.7 nM.
On the same count and under the same terms, as for `CCn1nc(C(F)(F)F)cc1-c1ccc(Oc2cc(F)c(S(=O)(=O)Nc3ccc(F)cn3)cc2Cl)cc1` [Example 404, 5-chloro-4-{4-[1-ethyl-3-(trifluoromethyl)-1H-pyrazol-5-yl]phenoxy}-2-fluoro-N-(5-fluoropyridin-2-yl)benzenesulfonamide], the figure is 1200 nM; as for `Cn1nccc1-c1cc(F)ccc1Oc1ccc(S(=O)(=O)Nc2ccncn2)cc1F` [Example 528, 3-fluoro-4-[4-fluoro-2-(1-methyl-1H-pyrazol-5-yl)phenoxy]-N-pyrimidin-4-ylbenzenesulfonamide], 740 nM; as for `Cn1nccc1-c1cc(F)ccc1Oc1cc(F)c(S(=O)(=O)Nc2ncc(Cl)s2)cc1F` [Example 613, N-(5-chloro-1,3-thiazol-2-yl)-2,5-difluoro-4-[4-fluoro-2-(1-methyl-1H-pyrazol-5-yl)phenoxy]benzenesulfonamide], 110 nM.
On the same count and under the same terms, next, `O=S(=O)(Nc1ncns1)c1cc(Cl)c(Oc2ccc(OC(F)F)cc2C2CCNCC2)cc1F` [Example 412, 5-chloro-4-[4-(difluoromethoxy)-2-piperidin-4-ylphenoxy]-2-fluoro-N-1,2,4-thiadiazol-5-ylbenzenesulfonamide]: 2.5 nM; `O=S(=O)(Nc1nccs1)c1ccc(Oc2ccc(Cl)cc2-c2cn[nH]c2)c(F)c1` [Example 685, 4-[4-chloro-2-(1H-pyrazol-4-yl)phenoxy]-3-fluoro-N-1,3-thiazol-2-ylbenzenesulfonamide]: 130 nM; `Cn1nc(C(F)(F)F)cc1-c1ccc(Oc2cc(F)c(S(=O)(=O)Nc3nncs3)cc2Cl)c(C#N)c1` [Example 297, 5-chloro-4-{2-cyano-4-[1-methyl-3-(trifluoromethyl)-1H-pyrazol-5-yl]phenoxy}-2-fluoro-N-1,3,4-thiadiazol-2-ylbenzenesulfonamide]: 1000 nM.
With `Cn1cc(-c2ccc(Oc3ccc(S(=O)(=O)Nc4nccs4)cc3C#N)cc2)c(N)n1` [Example 483, 4-[4-(3-amino-1-methyl-1H-pyrazol-4-yl)phenoxy]-3-cyano-N-1,3-thiazol-2-ylbenzenesulfonamide], the IC50 is above 1000 nM.
On the same count and under the same terms, as for `Cn1cc(-c2cc(Cl)ccc2Oc2ccc(S(=O)(=O)Nc3cscn3)cc2C#N)cn1` [Example 414, 4-[4-chloro-2-(1-methyl-1H-pyrazol-4-yl)phenoxy]-3-cyano-N-1,3-thiazol-4-ylbenzenesulfonamide], the figure is 1000 nM; as for `N#Cc1cc(S(=O)(=O)Nc2ncc(I)s2)ccc1Oc1ccc(Cl)cc1-c1cn[nH]c1` [Example 582, 4-[4-Chloro-2-(1H-pyrazol-4-yl)phenoxy]-3-cyano-N-(5-iodo-1,3-thiazol-2-yl)benzenesulfonamide], 34 nM; as for `N#Cc1cc(S(=O)(=O)Nc2cscn2)ccc1Oc1ccc(Cl)cc1-c1ccnc(N)c1` [Example 392, 4-[2-(2-aminopyridin-4-yl)-4-chlorophenoxy]-3-cyano-N-1,3-thiazol-4-ylbenzenesulfonamide], 140 nM.
Same read-out and setting: next, `N#Cc1cc(S(=O)(=O)Nc2ncns2)ccc1Oc1cc(F)c(Cl)cc1-c1cn[nH]c1` [Example 804, 4-[4-chloro-5-fluoro-2-(1H-pyrazol-4-yl)phenoxy]-3-cyano-N-1,2,4-thiadiazol-5-ylbenzenesulfonamide]: 1.2 nM.

Staying with this experiment, now noted: estimated IC50; hSCN9A HEK cells, PatchXpress platform; Examples 815-1040.
For `Nc1cc(-c2cc(Cl)ccc2Oc2ccc(S(=O)(=O)Nc3cccnn3)cc2Cl)ccn1` [Example 1014, 4-[2-(2-aminopyridin-4-yl)-4-chlorophenoxy]-3-chloro-N-pyridazin-3-ylbenzenesulfonamide], the IC50 is 10 nM.
Same read-out and setting: next, `CN(C)c1cc(-c2cc(Cl)ccc2Oc2ccc(S(=O)(=O)Nc3ncns3)cc2C#N)ccn1` [Example 1026, 4-{4-Chloro-2-[2-(dimethylamino)pyridin-4-yl]phenoxy}-3-cyano-N-1,2,4-thiadiazol-5-ylbenzenesulfonamide]: 1.6 nM; `Cn1nccc1-c1cc(Cl)ccc1Oc1ncc(S(=O)(=O)Nc2ncns2)cc1Cl` [Example 927, 5-chloro-6-[4-chloro-2-(1-methyl-1H-pyrazol-5-yl)phenoxy]-N-1,2,4-thiadiazol-5-ylpyridine-3-sulfonamide]: 120 nM.

The record behind these values is patent US8541588B2, “Sulfonamide derivatives” (Pfizer Limited, priority 2009, dated 2013).
